Test results reported in publication PMC4280898, “Diazido Mixed-Amine Platinum(IV) Anticancer Complexes Activatable by Visible-Light Form Novel DNA Adducts” (Chemistry (Weinheim an Der Bergstrasse, Germany), 2013).
Where two headings read alike, the source gives them in different places.

Legend:
[1] = tested on: A2780 cells; conditions: cited from earlier work
[2] = tested on: A2780cis cells; conditions: cited from earlier work; for Resistance factor: A2780cis vs A2780
[3] = molecular target: T1, HMGB1 protein (Homo sapiens, UniProt P09429); assay: HMGB1 recognition of platinated 50 bp duplex, gel mobility shift assay; type: binding; conditions: 50 bp duplex modified in the dark
T1 sequence (P09429 1-215): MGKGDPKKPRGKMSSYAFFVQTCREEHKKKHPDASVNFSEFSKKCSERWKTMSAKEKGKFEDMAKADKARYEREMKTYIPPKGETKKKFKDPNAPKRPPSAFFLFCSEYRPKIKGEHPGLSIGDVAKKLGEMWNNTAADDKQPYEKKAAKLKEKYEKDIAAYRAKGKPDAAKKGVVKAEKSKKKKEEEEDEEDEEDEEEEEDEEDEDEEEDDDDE
From the text: HMGB1 protein recognition: The interactions of high mobility group protein B1 (HMGB1) with a 50 bp duplex DNA adducts formed by 1 or 2 under irradiation conditions and 5 or 6 in the dark were investigated using a gel mobility shift assay.
Figure 13 Recognition by HMGB1 protein of platinated DNA. Affinity of full-length HMGB1 to non-modified (control) DNA (lanes 1 and 2) or DNA modified by cisplatin (7) in the dark (lanes 3 and 4), 5 in the dark (lanes 5 and 6), 6 in the dark (lanes 7 and 8), photoactivated 1 (420 nm light, lanes 9 and 10) or photoactivated 2 (420 nm light, lanes 11 and 12). Lanes 1, 3, 5, 7, 9, 11, no protein added; lanes 2, 4, 6, 8, 10, 12, 700 ng HMGB1 added.

[4] = tested on: calf thymus DNA; conditions: in the dark; cited from earlier work
[5] = tested on: A2780 cells; assay: SRB proliferation assay for non-light-sensitive complexes, A2780; type: cell-based, human; conditions: ambient light, 24 h exposure, 72 h recovery
Method: (§1) Cytotoxicity of platinum(II) precursors: To investigate the relationship between the Pt^IV diazidodihydroxido complexes and their Pt^II dichlorido analogues trans-[PtCl2(Am1)(Am2)] (where Am=amine), the cytotoxicities of complexes trans-[PtCl2(MA)(Py)] (5) and trans-[PtCl2(MA)(Tz)] (6) towards A2780 and its cisplatin resistant sub-line A2780cis were determined. The toxicity was not photoinduced, as the complexes are not photoactive. Complexes 5 and 6 are highly cytotoxic towards A2780 and A2780cis cells compared to the reported trans-Pt^II compounds.[18]–[22] Complex 5 is about three-times more cytotoxic than complex 6 towards A2780 cells. […]
(§2) Cell Culture and Proliferation Assay for Non-light-sensitive Complexes
(§3) The A2780 ovarian cell line was obtained from the ECACC (European Collection of Animal Cell Culture, Salisbury, United Kingdom). The cells were maintained in RPMI 1640 media, which was supplemented with 10% foetal calf serum, 1% L-glutamine, and 1% penicillin/streptomycin. All cells were grown at 310 K in an humidified atmosphere containing 5% CO2. Stock solutions of the Pt complexes were freshly prepared in DMSO to assist dissolution and then diluted into saline and medium (maximum final concentration of DMSO 1% and saline 6%). After plating 5000 A2780 cells per well on day 1, Pt complexes were added to the cancer cells on day 3 at concentrations ranging from 0.01 to 100 µM, depending on the preliminary activity data obtained in screening assays. Cells were exposed to the complexes for 24 h, washed with PBS, supplied with fresh medium, and allowed to grow for three doubling times (72 h), and then the protein content (proportional to cell survival) was measured using the sulforhodamine B (SRB) assay.[7] The standard errors are based on two independent experiments of three replicates each.[8]

[6] = parameters: method as in earlier work; conditions: 310 K; cited from earlier work
[7] = tested on: A2780cis cells; assay: Constant challenge proliferation (MTT) assay, A2780cis; type: cell-based, human; conditions: conventional constant challenge proliferation assay
From the text: (§4) It should be noted that the phototoxicity assay is not a proliferation assay.

[8] = tested on: pUC19 plasmid DNA; conditions: in the dark; cited from earlier work
[9] = tested on: A2780 cells; assay: Constant challenge proliferation (MTT) assay, A2780; type: cell-based, human; conditions: conventional constant challenge proliferation assay
From the text: as §4

[10] = tested on: calf thymus DNA; conditions: in the dark; ref 32b; cited from earlier work
[11] = tested on: 212 bp NdeI–HpaI fragment of pSP73KB DNA; conditions: in the dark, cited from earlier work
[12] = tested on: pSP73KB plasmid DNA; conditions: in the dark; ref 32b; cited from earlier work
[13] = tested on: DNA; parameters: method as in PMID 1827334; conditions: ref 3a; cited from earlier work
[14] = tested on: A2780cis cells; assay: SRB proliferation assay for non-light-sensitive complexes, A2780cis; type: cell-based, human
Method: as §1, §2, §3

[15] = tested on: 212 bp NdeI–HpaI fragment of pSP73KB DNA; assay: Transcription mapping of DNA adducts (T7 RNA polymerase); type: biochemical; conditions: in the dark; rb=0.01
Method: Sequence preference of DNA adducts: Transcription mapping experiments were performed to determine the DNA binding sites for Pt complexes. The experiments were carried out using a linear 212 bp DNA fragment (sequence in Figure 9 B), randomly modified by transplatin (8), cisplatin (7), 5 or 6 in the dark or by 1 and 2 photoactivated with blue light (420 nm) at rb=0.01 (rb is defined as the number of the molecules of platinum complex coordinated per nucleotide residue), for RNA synthesis by T7 RNA polymerase (Figure 9 A, lanes 8, 7, 5, 6, 1 and 2, respectively). RNA synthesis on the template modified by the platinum complexes produced fragments of defined sizes (Figure 9 A), which indicate the sites where RNA synthesis was prematurely terminated. It should be noted that RNA synthesis by T7 RNA polymerase is prematurely terminated only due to the platinum adducts on the template strand.[23] […] The ability to bind to A and C sites is consistent with the result from AMP and CMP binding experiments (Figure S18 in the Supporting Information).
Figure 9 Inhibition of RNA synthesis by T7 RNA polymerase on the NdeI–HpaI fragment of pSP73KB plasmid DNA modified by complexes 5 or 6, cisplatin (7) or transplatin (8) in the dark, or with photoactivated 1 or 2 (420 nm light). A) Autoradiogram of a polyacrylamide (6 %)/urea (8 M) sequencing gel. […]
assayed by differential pulse polarography for free, unbound platinum.[16] The amount of platinum bound to DNA was calculated by subtracting the amount of free (unbound) platinum from the total amount of platinum present in the reaction. […]
This fragment contained T7 RNA polymerase promoter (in the upper strand close to its 3'-end). […] The fragments produced in RNA synthesis on the template modified by the platinum complexes were analysed by a 6% polyacrylamide/8M urea sequencing gel.
Quantification of DNA adducts […]
Platinum associated with DNA was assessed by flameless atomic absorption […]
Quantification of DNA interstrand cross-links […]

[16] = molecular target: T1, HMGB1 protein; conditions: in the dark; footnote a: taken from literature; cited from earlier work

In the case of `CC(C)[NH2+][Pt-2]([Cl])([Cl])[n+]1ccn(C)c1`, the IC50 [1] is given as 21 ± 0.6 µM, the Resistance factor [2] is given as 0.66 and the IC50 [2] is given as 14 ± 3.5 µM.
For `N.N.[Cl][Pt][Cl]` [Complex 7, cis-[PtCl2(NH3)2]], the HMGB1 protein recognition [3] is given as “strongly bound by HMGB1”, the “Pt bound after 24 h” value [4] is given as 100[36] % and the IC50 [5] is given as 1.5 ± 0.3 µM. For the same compound, the “Time for binding to 5′-GMP to reach 50 %” value [6] was 7 to 8 h, the IC50 [7] was 11 µM and the Unwinding angle [8] was 13[25] °. The IC50 [9] was 0.5 µM, the “Bifunctional adducts after 24 h” value [10] was 97–99[32b] % and the Sequence specificity ([11]; ref 30c, 37) was “GG, (GA)[30c], [37]”. For the same compound, the Interstrand cross-link [12] was 6[32b] %, the “d(ApG) 1,2-intrastrand cross-links, share of all adducts” value [13] was 20–25% and the “d(GpG) 1,2-intrastrand cross-links, share of all adducts” value [13] was 60–65%. It also gave a Resistance factor ([14]; A2780cis vs A2780, SRB assay) of 7.0 and an IC50 ([14]; ambient light, 24 h exposure, 72 h recovery, SRB) of 10.5 ± 0.3 µM.
For `N.N.[Cl][Pt+2][Cl]` [Complex 8, transplatin], the “Pt bound after 24 h” value [4] is given as 100[36] %, the Unwinding angle [8] is given as 9[25] ° and the “Bifunctional adducts after 24 h” value [10] is given as 50[32b] %. For the same compound, the Sequence specificity ([11]; ref 32b) was “G, C[32b]”, the IC50 [1] was > 200 µM and the Interstrand cross-link [12] was 12[32b] %. The Sequence specificity [15] was “stop sites mainly at G and C” and the HMGB1 protein recognition [16] was “no ^[a]”.
For `CCC(C)C[NH][Pt]([Cl])[Cl].N` (stereo not drawn) [trans-[PtCl2(NH3)(2-methyl-butylamine)]], the IC50 [1] is given as 1.7 µM, the Resistance factor [2] is given as 5.5 and the IC50 [2] is given as 9.3 µM.
In the case of `Cc1cc[n+]([Pt@SP2-2]([NH3+])([Cl])[Cl])cc1` [trans-[PtCl2(NH3)(4-picoline)]], the IC50 [1] is given as 7 ± 1 µM, the Resistance factor [2] is given as 11 and the IC50 [2] is given as 80 ± 5 µM.
In the case of `COC(C)=N.N.[Cl][Pt][Cl]` [trans-[PtCl2(NH3)(HN=C(OCH3)CH3)]], the IC50 [1] is listed as 1.3 ± 0.3 µM, the Resistance factor [2] is listed as 5.4 and the IC50 [2] is listed as 7 ± 1.3 µM.
For `C1CNCCN1.N.[Cl][Pt][Cl]` [trans-[PtCl2(NH3)(piperazine)]], the IC50 [1] is given as 5 ± 1 µM, the Resistance factor [2] is given as 8.8 and the IC50 [2] is given as 44 ± 2 µM.
For `C1CCNCC1.N.[Cl][Pt][Cl]` [trans-[PtCl2(NH3)(piperidine)]], the IC50 [1] is listed as 5 ± 0.7 µM, the Resistance factor [2] is listed as 4.0 and the IC50 [2] is listed as 20 ± 2 µM.
In the case of `CCC(C)N.N.[Cl][Pt][Cl]` (stereo not drawn) [trans-[PtCl2(NH3)(sec-butylamine)]], the IC50 [1] is listed as 2.1 µM, the Resistance factor [2] is listed as 7.4 and the IC50 [2] is listed as 15.5 µM.
